The source of these data is patent publication US20240228504A1, “SUBSTITUTED TRICYCLIC AMIDES, ANALOGUES THEREOF, AND METHODS USING SAME” (Arbutus Biopharma Corporation, priority 2020, published 2024).

Each structure is given as a SMILES string.

One experiment deals with HBV rcDNA in HepDE19 cells. In words: HepDE19 assay with bDNA quantitation of HBV rcDNA. The experiment is classed as cell-based, hepatitis B virus. As to conditions: HepDE19 assay, inhibition of rcDNA formation, bDNA quantitation; read-out: DE-19bDNA EC50.
As usually defined, the EC50 is the concentration giving half of the maximal effect. Take `CN(C(=O)c1ccc2ncsc2c1)C1CNCc2[nH]c(=O)c3cc(F)c(F)cc3c21` (single isomer, unassigned) [Compound 465, N-(8,9-difluoro-6-oxo-1,2,3,4,5,6-hexahydrobenzo[c][1,7]naphthyridin-1-yl)-N-methylbenzo[d]thiazole-6-carboxamide]: the EC50 came out at 3200 nM.

Take `CN(C(=O)c1cc2ccccc2[nH]1)C1CCCc2[nH]c(=O)c3cc(F)c(F)cc3c21` (single isomer, unassigned) [Compound 466, N-(8,9-Difluoro-6-oxo-1,2,3,4,5,6-hexahydrophenanthridin-1-yl)-N-methyl-1H-indole-2-carboxamide]: the EC50 was determined as 2100 nM.

Turning to `CN(C(=O)c1cc2ccccc2[nH]1)C1CCCc2[nH]c(=O)c3cc(F)c(F)cc3c21` (single isomer, unassigned) [Compound 467, N-(8,9-Difluoro-6-oxo-1,2,3,4,5,6-hexahydrophenanthridin-1-yl)-N-methyl-1H-indole-2-carboxamide], the EC50 was 10 nM.

With `CN(C(=O)c1ccc2cn[nH]c2c1)C1COCc2[nH]c(=O)c3cc(F)ccc3c21` (single isomer, unassigned) [Compound 470, N-(8-fluoro-6-oxo-1,4,5,6-tetrahydro-2H-pyrano[3,4-c]isoquinolin-1-yl)-N-methyl-1H-indazole-6-carboxamide], the EC50 amounted to 1100 nM.

In the case of `CN(C(=O)c1ccc2c(c1)CCC2)C1CNCc2[nH]c(=O)c3cc(F)c(F)cc3c21` (single isomer, unassigned) [Compound 471, N-(8,9-difluoro-6-oxo-1,2,3,4,5,6-hexahydrobenzo[c][1,7]naphthyridin-1-yl)-N-methyl-2,3-dihydro-1H-indene-5-carboxamide], the EC50 was 8700 nM.

Turning to `CN(C(=O)c1ccc2c(c1)CCC2)C1CNCc2[nH]c(=O)c3cc(F)c(F)cc3c21` (single isomer, unassigned) [Compound 472, N-(8,9-difluoro-6-oxo-1,2,3,4,5,6-hexahydrobenzo[c][1,7]naphthyridin-1-yl)-N-methyl-2,3-dihydro-1H-indene-5-carboxamide], the EC50 is 40 nM.

For the compound `CN(C(=O)c1cc2ccccc2[nH]1)C1CCCc2[nH]c(=O)c3cc(F)ccc3c21` (single isomer, unassigned) [Compound 475, N-(8-Fluoro-6-oxo-1,2,3,4,5,6-hexahydrophenanthridin-1-yl)-N-methyl-1H-indole-2-carboxamide], the EC50 is 1800 nM.

As to `CN(C(=O)c1cc2ccccc2[nH]1)C1CCCc2[nH]c(=O)c3cc(F)ccc3c21` (single isomer, unassigned) [Compound 476, N-(8-Fluoro-6-oxo-1,2,3,4,5,6-hexahydrophenanthridin-1-yl)-N-methyl-1H-indole-2-carboxamide], the EC50 was found to be 20 nM.

Turning to `CN(C(=O)c1ccc2cn[nH]c2c1)C1CNCc2[nH]c(=O)c3cc(F)c(F)cc3c21` (single isomer, unassigned) [Compound 495, N-(8,9-difluoro-6-oxo-1,2,3,4,5,6-hexahydrobenzo[c][1,7]naphthyridin-1-yl)-N-methyl-1H-indazole-6-carboxamide], the 50% effective concentration (EC50) was more than 25000 nM.

Turning to `CN(C(=O)c1ccc2cn[nH]c2c1)C1CNCc2[nH]c(=O)c3cc(F)c(F)cc3c21` (single isomer, unassigned) [Compound 496, N-(8,9-difluoro-6-oxo-1,2,3,4,5,6-hexahydrobenzo[c][1,7]naphthyridin-1-yl)-N-methyl-1H-indazole-6-carboxamide], the EC50 turned out to be 4200 nM.

As to `CN(C(=O)c1cc2sc(F)cc2[nH]1)C1COCc2[nH]c(=O)c3cc(F)ccc3c21` (single isomer, unassigned) [Compound 497, 2-fluoro-N-(8-fluoro-6-oxo-1,4,5,6-tetrahydro-2H-pyrano[3,4-c]isoquinolin-1-yl)-N-methyl-4H-thieno[3,2-b]pyrrole-5-carboxamide], the EC50 came to 1200 nM.

In the case of `CN(C(=O)c1cc2sc(F)cc2[nH]1)C1COCc2[nH]c(=O)c3cc(F)ccc3c21` (single isomer, unassigned) [Compound 498, 2-fluoro-N-(8-fluoro-6-oxo-1,4,5,6-tetrahydro-2H-pyrano[3,4-c]isoquinolin-1-yl)-N-methyl-4H-thieno[3,2-b]pyrrole-5-carboxamide], the EC50 was found to be 80 nM.

Regarding `CN(C(=O)c1cc2sc(F)cc2[nH]1)C1CNCc2[nH]c(=O)c3cc(F)c(F)cc3c21` (single isomer, unassigned) [Compound 499, N-(8,9-difluoro-6-oxo-1,2,3,4,5,6-hexahydrobenzo[c][1,7]naphthyridin-1-y1)-2-fluoro-N-methyl-4H-thieno[3,2-b]pyrrole-5-carboxamide], the EC50 amounted to 20000 nM.

With `CN(C(=O)c1cc2sc(F)cc2[nH]1)C1CNCc2[nH]c(=O)c3cc(F)c(F)cc3c21` (single isomer, unassigned) [Compound 500, N-(8,9-difluoro-6-oxo-1,2,3,4,5,6-hexahydrobenzo[c][1,7]naphthyridin-1-yl)-2-fluoro-N-methyl-4H-thieno[3,2-b]pyrrole-5-carboxamide], the EC50 stood at 30 nM.

Consider `CN(C(=O)c1cc2cc(F)ccc2[nH]1)[C@@H]1CCC(O)c2[nH]c(=O)c3cc(F)c(F)cc3c21` (single isomer, unassigned) [Compound 501], for which the EC50 turned out to be 10 nM.

As to `CN(C(=O)c1cc2cc(F)ccc2[nH]1)[C@@H]1CCC(O)c2[nH]c(=O)c3cc(F)c(F)cc3c21` (single isomer, unassigned) [Compound 502], the EC50 came out at 30 nM.

`CN(C(=O)c1cc2ccccc2[nH]1)[C@@H]1CCC(O)c2[nH]c(=O)c3cc(F)c(F)cc3c21` (single isomer, unassigned) [Compound 504]: the EC50 came out at 580 nM.

Take `CN(C(=O)c1cc2ccccc2[nH]1)[C@@H]1CCC(O)c2[nH]c(=O)c3cc(F)c(F)cc3c21` (single isomer, unassigned) [Compound 505]: the EC50 stood at 50 nM.

Consider `CN(C(=O)c1cc2ccccn2c1)C1CNCc2[nH]c(=O)c3cc(F)c(F)cc3c21` (single isomer, unassigned) [Compound 506, N-(8,9-Difluoro-6-oxo-1,2,3,4,5,6-hexahydrobenzo[c][1,7]naphthyridin-1-yl)-N-methylindolizine-2-carboxamide], for which the concentration for a half-maximal effect (EC50) was determined as 22000 nM.

Consider `CN(C(=O)c1cc2ccccn2c1)C1CNCc2[nH]c(=O)c3cc(F)c(F)cc3c21` (single isomer, unassigned) [Compound 507, N-(8,9-Difluoro-6-oxo-1,2,3,4,5,6-hexahydrobenzo[c][1,7]naphthyridin-1-yl)-N-methylindolizine-2-carboxamide], for which the 50% effective concentration (EC50) was 60 nM.

With `CN(C(=O)c1cc2c(Cl)cccn2c1)C1CNCc2[nH]c(=O)c3cc(F)c(F)cc3c21` (single isomer, unassigned) [Compound 508, 8-Chloro-N-(8,9-Difluoro-6-oxo-1,2,3,4,5,6-hexahydrobenzo[c][1,7]naphthyridin-1-yl)-N-methylindolizine-2-carboxamide], the EC50 is 11600 nM.

`CN(C(=O)c1cc2c(Cl)cccn2c1)C1CNCc2[nH]c(=O)c3cc(F)c(F)cc3c21` (single isomer, unassigned) [Compound 509, 8-Chloro-N-(8,9-Difluoro-6-oxo-1,2,3,4,5,6-hexahydrobenzo[c][1,7]naphthyridin-1-yl)-N-methylindolizine-2-carboxamide]: the EC50 was found to be 10 nM.

With `CN(C(=O)C1Cc2c(F)cc(F)cc2N1)C1COCc2[nH]c(=O)c3cc(F)c(F)cc3c21` (stereo not drawn) [Compound 13, N-(8,9-Difluoro-6-oxo-1,4,5,6-tetrahydro-2H-pyrano[3,4-c]isoquinolin-1-yl)-4,6-difluoro-N-methylindoline-2-carboxamide], the EC50 came to 12000 nM.

With `CN(C(=O)C1Cc2c(F)cc(F)cc2N1)C1COCc2[nH]c(=O)c3cc(F)c(F)cc3c21` (stereo not drawn) [Compound 14, N-(8,9-Difluoro-6-oxo-1,4,5,6-tetrahydro-2H-pyrano[3,4-c]isoquinolin-1-yl)-4,6-difluoro-N-methylindoline-2-carboxamide], the EC50 was 40 nM.

With `CN(C(=O)C1Cc2c(F)cc(F)cc2N1)C1COCc2[nH]c(=O)c3cc(F)c(F)cc3c21` (stereo not drawn) [Compound 15, N-(8,9-Difluoro-6-oxo-1,4,5,6-tetrahydro-2H-pyrano[3,4-c]isoquinolin-1-yl)-4,6-difluoro-N-methylindoline-2-carboxamide], the half-maximal effective concentration (EC50) is 960 nM.

Consider `CN(C(=O)C1Cc2c(F)cc(F)cc2N1)C1COCc2[nH]c(=O)c3cc(F)c(F)cc3c21` (stereo not drawn) [Compound 16, N-(8,9-Difluoro-6-oxo-1,4,5,6-tetrahydro-2H-pyrano[3,4-c]isoquinolin-1-yl)-4,6-difluoro-N-methylindoline-2-carboxamide], for which the EC50 stood at 20 nM.

The experiment is the same for the next values; noted with them: Hepatitis B virus, HepDE19, HepDE19 assay, inhibition of rcDNA formation, bDNA quantitation; read-out: DE-19bDNA EC50.
On to `CN(C(=O)c1ccc2cn[nH]c2c1)C1COCc2[nH]c(=O)c3cc(F)ccc3c21` (single isomer, unassigned) [Compound 469, N-(8-fluoro-6-oxo-1,4,5,6-tetrahydro-2H-pyrano[3,4-c]isoquinolin-1-yl)-N-methyl-1H-indazole-6-carboxamide], for which the EC50 is 2200 nM.

Consider `CN(C(=O)c1ccc2[nH]ncc2c1)C1CNCc2[nH]c(=O)c3cc(F)c(F)cc3c21` (single isomer, unassigned) [Compound 474, N-(8,9-difluoro-6-oxo-1,2,3,4,5,6-hexahydrobenzo[c][1,7]naphthyridin-1-yl)-N-methyl-1H-indazole-5-carboxamide], for which the EC50 was found to be 3800 nM.

Consider `CN(C(=O)c1cc2cc(F)c(F)cc2[nH]1)[C@H]1COCc2[nH]c(=O)c3cc(F)c(F)cc3c21` [Compound 41, N-(8,9-difluoro-6-oxo-1,4,5,6-tetrahydro-2H-pyrano[3,4-c]isoquinolin-1-yl)-5,6-difluoro-N-methyl-1H-indole-2-carboxamide], for which the EC50 worked out at 2200 nM.

On to `CN(C(=O)c1cc2cc(F)c(F)cc2[nH]1)[C@@H]1COCc2[nH]c(=O)c3cc(F)c(F)cc3c21` [Compound 42, (S)-N-(8,9-difluoro-6-oxo-1,4,5,6-tetrahydro-2H-pyrano[3,4-c]isoquinolin-1-yl)-5,6-difluoro-N-methyl-1H-indole-2-carboxamide], for which the EC50 was 5 nM.
